Source: patent publication US12264173B2 (GILEAD SCIENCES, INC., priority 2020, dated 2025)
pEC50: −log10 of the molar value. Where two headings read alike, the source gives them in different places.

Experiments:
Assay type in all cases: cell-based
RSV A2 = experiment: RSV NHBE EC50 (RSV A2 antiviral assay in NHBE cells); conditions: Table 3, NHBE cells, RSV A2, 4 days, read-out: RSV NHBE EC50
How it was run: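 NHBE cells (≤6 passages) were seeded at 7,500 cells per well, treated with 3-fold serially diluted compound at 0.05% DMSO, then infected with RSV A2 at 1×10^4.5 TCID/mL. After 4 days at 37° C, viability was measured by CellTiter-Glo luminescence.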

HRV16 = HRV16 HeLa EC50 (cytopathic effect in H1-HeLa cells)
Protocol: H1-HeLa cells, cultured in complete DMEM medium containing 10% heat-inactivated FBS and 1% Penicillin/Streptomycin, were seeded in 96 well plates at 3000 cells/well one day prior to compound dosing and infection. The antiviral activity of each compound was measured in triplicate. Compounds were added directly to the cell cultures in serial 3-fold dilutions using the HP300 digital dispenser (Hewlett Packard, Palo Alto, CA) immediately prior to infection. The plates were transferred to BSL-2 containment and the appropriate dilution of virus stock, previously determined by titration and prepared in cell culture media, was added to test plates containing cells and serially diluted compounds. Each plate included 6 wells of infected untreated cells and 6 wells of uninfected cells that served as 0% and 100% virus inhibition control, respectively. Following the infection, test plates were incubated for 96 h in a tissue culture incubator set to 33° C./5% CO2. Following incubation, the H1-HeLa cells were removed from incubation and allowed to equilibrate to 25° C. Cell viability was determined by removing 100 μL of culture medium and adding 100 μL of Cell-Titer Glo viability reagent. The mixtures were incubated on a shaker for 10 minutes at 25° C., and the luminescence signal was quantified on an Envision luminescence plate reader.

RSV strain A2 = experiment: microbe, parasite or virus in culture; conditions: Table 3, HEp-2 cells, RSV A2, 4 days, read-out: RSV HEp-2 EC50
How it was run: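 Cytopathic-effect protection assay: HEp-2 cells (50,000/mL) infected with pre-titered RSV A2 onto 3-fold serial compound dilutions, incubated 4 days at 37° C. Cell viability read by CellTiter-Glo luminescence; percent inhibition derived against 0% and 100% virus-inhibition controls.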

DENV2 replicon = experiment: DENV-2 Huh-7 Rep EC50 (replicon luminescence)
Protocol: In 384 well plates (Greiner, Cat #781091), compounds were acoustically transferred at 200 nl per well in a 8 compound (4 replicates) or 40 compound dose response format (3 replicates). For all plates tested, Balapiravir, GS-5734 and NITD008 were included as positive inhibition controls alongside 0% inhibition, DMSO-only negative control wells. Following compound addition, Huh-7 cells containing the DENV2 replicon construct were harvested following standard cell culture procedures and were adjusted to a concentration of 1.25E5 cells/mL in cell culture media composed of cDMEM without genticin. 40 μL of the cell stock was then added to each well for a final cell density of 5,000 cells/well. Cell and compound mixtures were incubated at 37° C./5% CO2 for 48 hours. Prior to harvesting cells, EnduRen Live Cell Substrate (Promega, Cat #E6481) was prepared by suspending 3.4 mg into 100 uL of DMSO to generate a 60 mM stock solution. The stock solution was then diluted 1:200 in pre-warmed cDMEM and 10 uL of this diluted solution was added to each well of the 384 well plates. Plates were then centrifuged at 500 rpm briefly and were placed on a plate shaker for 2 min. Following mixing, plates were incubated at […] for 1.5 hours prior to measuring luminescence on an Envision luminometer.

[1] = human respiratory syncytial virus, NHBE, 96 h
[2] = 96 h, Table 3; H1-HeLa cells, 96 h; read-out: HRV16 HeLa EC50
[3] = human respiratory syncytial virus, HEp-2, 96 h
[4] = Dengue virus, DENV2, Huh-7, 48 h, read-out: DENV-2 REP Huh7 EC50
[5] = Dengue virus, DENV2, Huh-7, 48 h, read-out: DENV-2 REP Huh7 EC50, Table 3, Huh-7 DENV2 replicon cells, 48 hours
[6] = Table 3; H1-HeLa cells, 96 h; read-out: HRV16 HeLa EC50
[7] = Table 3, Huh-7 DENV2 replicon cells, 48 hours, read-out: DENV-2 REP Huh7 EC50

Compound `COC(=O)[C@H](C)NP(=O)(OC[C@@]1(C#N)O[C@@H](c2ccc3c(NC(C)=O)ncnn23)[C@H](OC(C)=O)[C@@H]1OC(C)=O)Oc1ccccc1` (stereo partly drawn) [Example 132, (2R,3S,4S,5S)-5-(4-acetamidopyrrolo[2,1-f][1,2,4]triazin-7-yl)-2-cyano-2-((((((S)-1-methoxy-1-oxopropan-2-yl)amino)(phenoxy)phosphoryl)oxy)methyl) tetrahydrofuran-3,4-diyl diacetate] has a pEC50 (RSV A2; [1]) of 6.84, a pEC50 (HRV16; [2]) of 5.46 and a pEC50 (RSV strain A2; [3]) of 6.36. It also gave a pEC50 (DENV2 replicon; [4]) of 4.53.
Compound `CCC(=O)O[C@H]1[C@H](c2ccc3c(N)ncnn23)O[C@](C#N)(COP(=O)(N[C@@H](C)C(=O)OC(C)C)Oc2ccc(C[C@H](N)C(=O)OC)cc2)[C@H]1OC(=O)CC` (stereo partly drawn) [Example 217, (2R,3S,4S,5S)-2-((((4-((S)-2-amino-3-methoxy-3-oxopropyl)phenoxy)(((S)-1-isopropoxy-1-oxopropan-2-yl)amino)phosphoryl)oxy)methyl)-5-(4-aminopyrrolo[2,1-f][1,2,4]triazin-7-yl)-2-cyanotetrahydrofuran-3,4-diyl dipropionate] has a pEC50 (RSV A2; [1]) of 5.69, a pEC50 (HRV16; [2]) of 4.92 and a pEC50 (RSV strain A2; [3]) of 5.01. The pEC50 (DENV2 replicon; [4]) was less than 4.30.
With `COC(=O)[C@H](C)NP(=O)(N[C@@H](C)C(=O)OC)OC[C@@]1(C#N)O[C@@H](c2ccc3c(NC(C)=O)ncnn23)[C@H](OC(C)=O)[C@@H]1OC(C)=O` [Example 128] the pEC50 (RSV A2; [1]) was less than 5.38, the pEC50 (HRV16; [2]) was less than 4.30 and the pEC50 (RSV strain A2; [3]) was 4.73. It also gave a pEC50 (DENV2 replicon; [5]) of less than 4.30.
`COC(=O)[C@H](C)NP(=O)(N[C@@H](C)C(=O)OC)OC[C@@]1(C#N)O[C@@H](c2ccc3c(NC(=O)C(C)C)ncnn23)[C@H](OC(=O)C(C)C)[C@@H]1OC(=O)C(C)C` [Example 150, ((2R,3S,4R,5S)-5-(4-isobutyramidopyrrolo[2,1-f][1,2,4]triazin-7-yl)-2-cyano-3,4-diisobutylatetetrahydrofuran-2-yl)methyl bis-methyl L-alaninate phosphate] showed a pEC50 (RSV A2; [1]) of 7.15, a pEC50 (HRV16; [2]) of 5.46 and a pEC50 (RSV strain A2; [3]) of 5.85. The pEC50 (DENV2 replicon; [5]) was less than 4.30.
With `CCCCC(=O)O[C@H]1[C@H](c2ccc3c(N)ncnn23)O[C@](C#N)(COP(=O)(N[C@@H](C)C(=O)OCC)N[C@@H](C)C(=O)OCC)[C@H]1OC(=O)CCCC` [Example 211, (2R,3S,4S,5S)-5-(4-Aminopyrrolo[2,1-f][1,2,4]triazin-7-yl)-2-(((bis(((S)-1-ethoxy-1-oxopropan-2-yl)amino)phosphoryl)oxy)methyl)-2-cyanotetrahydrofuran-3,4-diyl dipentanoate] the pEC50 (RSV A2) was 6.02, the pEC50 (HRV16; [6]) was 5.71 and the pEC50 (RSV strain A2) was 6.19. For the same compound, the pEC50 (DENV2 replicon; read-out: DENV-2 REP Huh7 EC50, Table 3, Huh-7 DENV2 replicon cells, 48 hours) was 4.54.
In the case of `C[C@H](N[P@](=O)(OC[C@@]1(C#N)O[C@@H](c2ccc3c(N)ncnn23)C(OC(=O)c2ccccc2)[C@@H]1OC(=O)c1ccccc1)Oc1ccccc1)C(=O)OC1CCCCC1` (stereo in doubt) [Example 83, (2R,3S,4R,5S)-5-(4-aminopyrrolo[2,1-f][1,2,4]triazin-7-yl)-2-cyano-2-((((S)-(((S)-1-(cyclohexyloxy)-1-oxopropan-2-yl)amino)(phenoxy)phosphoryl)oxy)methyl) tetrahydrofuran-3,4-diyl dibenzoate], the pEC50 (RSV A2; [1]) was less than 5.30, the pEC50 (HRV16; [2]) was 4.76 and the pEC50 (RSV strain A2; [3]) was less than 4.00. For the same compound, the pEC50 (DENV2 replicon; [4]) was 5.29.
With `COC(=O)[C@H](C)NP(=O)(N[C@@H](C)C(=O)OC)OC[C@@]1(C#N)O[C@@H](c2ccc3c(N)ncnn23)[C@H](OC(C)=O)[C@@H]1OC(C)=O` [Example 127] the pEC50 (RSV A2; [1]) was 5.47, the pEC50 (HRV16; [2]) was less than 4.30 and the pEC50 (RSV strain A2; [3]) was 5.09. The pEC50 (DENV2 replicon; [5]) was less than 4.30.
Work on `CC(=O)O[C@H]1[C@H](c2ccc3c(N)ncnn23)O[C@](C#N)(COP(=O)(N[C@@H](C)C(=O)OC(C)C)N[C@@H](C)C(=O)OC(C)C)[C@H]1OC(C)=O` [Example 133, ((2R,3S,4R,5S)-5-(4-aminopyrrolo[2,1-f][1,2,4]triazin-7-yl)-2-cyano-3,4-diacetatetetrahydrofuran-2-yl)methyl bis-isopropyl L-alaninate phosphate] yielded a pEC50 (RSV A2; [1]) of less than 5.39, a pEC50 (HRV16; [2]) of less than 4.31 and a pEC50 (RSV strain A2; [3]) of 4.74. It also gave a pEC50 (DENV2 replicon; [5]) of less than 4.30.
`C/C(=N\c1ncnn2c([C@@H]3O[C@](C#N)(COP(=O)(N[C@@H](C)C(=O)OC4CCOCC4)Oc4ccccc4)[C@@H](OC(=O)C(C)C)[C@H]3OC(=O)C(C)C)ccc12)N(C)C` (stereo partly drawn) [Example 219, (2R,3S,4S,5S)-2-cyano-5-(4-(((E)-1-(dimethylamino)ethylidene)amino)pyrrolo[2,1-f][1,2,4]triazin-7-yl)-2-((((((S)-1-oxo-1-((tetrahydro-2H-pyran-4-yl)oxy)propan-2-yl)amino)(phenoxy)phosphoryl)oxy)methyl) tetrahydrofuran-3,4-diyl bis(2-methylpropanoate)] gave a pEC50 (RSV A2) of 7.09, a pEC50 (HRV16; [6]) of 6.45 and a pEC50 (RSV strain A2) of 7.17. The pEC50 (DENV2 replicon; [7]) was 4.78.
`CC(=O)O[C@H]1[C@H](c2ccc3c(N)ncnn23)O[C@](C#N)(CO[P@](=O)(N[C@@H](C)C(=O)OCC2CCN(CC(F)(F)F)CC2)Oc2ccccc2)[C@H]1OC(C)=O` [Example 120] gave a pEC50 (HRV16; [6]) of 5.94, a pEC50 (RSV strain A2) of 6.79 and a pEC50 (DENV2 replicon; [7]) of 4.45.
In the case of `CCC(CC)COC(=O)[C@H](C)NP(=O)(N[C@@H](C)C(=O)OC1CCCCC1)OC[C@@]1(C#N)O[C@@H](c2ccc3c(N)ncnn23)[C@H](OC(C)=O)[C@@H]1OC(C)=O` (stereo partly drawn) [Example 113, (2R,3S,4S,5S)-5-(4-Aminopyrrolo[2,1-f][1,2,4]triazin-7-yl)-2-cyano-2-((((((S)-1-(cyclohexyloxy)-1-oxopropan-2-yl)amino)(((S)-1-(2-ethylbutoxy)-1-oxopropan-2-yl)amino)phosphoryl)oxy)methyl)tetrahydrofuran-3,4-diyl diacetate], the pEC50 (HRV16; 96 h, read-out: HRV16 HeLa EC50, Table 3; H1-HeLa cells, 96 h) was 5.33, the pEC50 (RSV strain A2; [3]) was 5.71 and the pEC50 (DENV2 replicon; [5]) was 4.50.
In the case of `CC(C)C(=O)O[C@H]1[C@H](c2ccc3c(N)ncnn23)O[C@](C#N)(COP(=O)(N[C@@H](C)C(=O)OC[C@H]2CC[C@H](N)CC2)Oc2ccccc2)[C@H]1OC(=O)C(C)C` (stereo partly drawn) [Example 207, (2R,3S,4S,5S)-2-((((((S)-1-(((1r,4S)-4-aminocyclohexyl)methoxy)-1-oxopropan-2-yl)amino)(phenoxy)phosphoryl)oxy)methyl)-5-(4-aminopyrrolo[2,1-f][1,2,4]triazin-7-yl)-2-cyanotetrahydrofuran-3,4-diyl bis(2-methylpropanoate)], the pEC50 (RSV A2; [1]) was 6.83, the pEC50 (RSV strain A2; [3]) was 5.97 and the pEC50 (DENV2 replicon; [4]) was less than 4.43.
`CC(C)OC(=O)[C@H](C)N[P@](=O)(OC[C@@]1(C#N)O[C@@H](c2ccc3c(N)ncnn23)[C@H](OC(=O)C2COC2)[C@@H]1OC(=O)C1COC1)Oc1ccccc1` [Example 160, (2R,3S,4S,5S)-5-(4-aminopyrrolo[2,1-f][1,2,4]triazin-7-yl)-2-cyano-2-((((S)-(((S)-1-isopropoxy-1-oxopropan-2-yl)amino)(phenoxy)phosphoryl)oxy)methyl) tetrahydrofuran-3,4-diyl bis(oxetane-3-carboxylate)] showed a pEC50 (RSV A2; [1]) of 6.07, a pEC50 (RSV strain A2; [3]) of 6.69 and a pEC50 (DENV2 replicon; [4]) of 4.43.
In the case of `CC(C)C(=O)O[C@H]1[C@H](c2ccc3c(N)ncnn23)O[C@](C#N)(COP(=O)(N[C@@H](C)C(=O)OCC(C)(C)O)Oc2ccccc2)[C@H]1OC(=O)C(C)C` (single isomer, unassigned) [Example 257], the pEC50 (RSV A2) was 7.62, the pEC50 (RSV strain A2) was 7.14 and the pEC50 (DENV2 replicon; [7]) was 5.13.
